Results on five compounds are retold here after patent US8435587B2, “High-potency sweetener composition with long-chain primary aliphatic saturated alcohol and compositions sweetened therewith” (The Coca-Cola Company, priority 2005, dated 2013).

Data set [1] is described as follows: Rate of dissolution of rebaudioside A forms in H2O at 25° C. It is filed as physicochemical.
Data set [2] is classed as physicochemical. How it is done:
A solution of rebaudioside A (>97% pure by HPLC) was prepared in double distilled water (12.5 gm in 50 mL, 25% concentration) by stirring the mixture at 40° C. for 5 minutes. An amorphous form of rebaudioside A was formed by immediately using the clear solution for spray drying with the Lab-Plant spray drier SD-04 instrument (Lab-Plant Ltd., West Yorkshire, U.K.). The solution was fed through the feed pump into the nozzle atomizer which atomized it into a spray of droplets with the help of a constant flow of nitrogen/air. […] This dry powder (11-12 g, H2O 6.74%) was discharged continuously from the drying chamber and was collected in a bottle.

Data set [3] in a line: Sensory evaluation of sweetness linger and sugar-like taste by expert panel. The format is in vivo. Details: key: 0: no sweetness linger; 1: very slight sweetness linger; 2: slight sweetness linger; 3: moderate sweetness linger; 4: moderately high sweetness linger; 5: high sweetness linger. On the procedure: As used herein, the phrases “sugar-like characteristic,” “sugar-like taste,” “sugar-like sweet,” “sugary,” and “sugar-like” are synonymous. […] These characteristics are dimensions in which the taste of sucrose is different from the tastes of natural and synthetic high-potency sweeteners. Whether or not a characteristic is more sugar-like is determined by expert sensory panel assessments of sugar and compositions comprising at least one natural and/or synthetic high-potency sweetener, both with and without a sweet taste improving composition. Such assessments quantify similarities of the characteristics of compositions comprising at least one natural and/or synthetic high-potency sweetener, both with and without a sweet taste improving composition, with those comprising sugar. Suitable procedures for determining whether a composition has a more sugar-like taste are well known in the art.
In a particular embodiment, a panel of assessors is used to measure the reduction of sweetness linger. […] A decrease in score for a time point measured after the sample has cleared the mouth indicates there has been a reduction in sweetness perception. […]

Data set [4] can be described thus: Sweetness level as sucrose equivalent.

As for `C=C1C[C@@]23CC[C@H]4[C@@](C)(CCC[C@@]4(C)C(=O)O[C@@H]4O[C@H](CO)[C@@H](O)[C@H](O)[C@H]4O)[C@@H]2CC[C@]1(O[C@@H]1O[C@H](CO)[C@@H](O)[C@H](O[C@@H]2O[C@H](CO)[C@@H](O)[C@H](O)[C@H]2O)[C@H]1O[C@@H]1O[C@H](CO)[C@@H](O)[C@H](O)[C@H]1O)C3` [Form 1, rebaudioside A], the “Rate of dissolution in H2O at 25° C.” value in data set [1] (H2O, 25° C.) is reported as “(<0.2%/ %/60 minutes”; in data set [1] (in words), “Very low”.
Consider `C=C1C[C@@]23CC[C@H]4[C@@](C)(CCC[C@@]4(C)C(=O)O[C@@H]4O[C@H](CO)[C@@H](O)[C@H](O)[C@H]4O)[C@@H]2CC[C@]1(O[C@@H]1O[C@H](CO)[C@@H](O)[C@H](O[C@@H]2O[C@H](CO)[C@@H](O)[C@H](O)[C@H]2O)[C@H]1O[C@@H]1O[C@H](CO)[C@@H](O)[C@H](O)[C@H]1O)C3` [Form 2, rebaudioside A], for which the “Rate of dissolution in H2O at 25° C.” value is listed as “(<30%/ %/5 minutes” in data set [1] (H2O, 25° C.) and “Intermediate” in data set [1] (in words).
Taken in the same sequence, the figures for `C=C1C[C@@]23CC[C@H]4[C@@](C)(CCC[C@@]4(C)C(=O)O[C@@H]4O[C@H](CO)[C@@H](O)[C@H](O)[C@H]4O)[C@@H]2CC[C@]1(O[C@@H]1O[C@H](CO)[C@@H](O)[C@H](O[C@@H]2O[C@H](CO)[C@@H](O)[C@H](O)[C@H]2O)[C@H]1O[C@@H]1O[C@H](CO)[C@@H](O)[C@H](O)[C@H]1O)C3` [Form 3, rebaudioside A] were “(>30%/ %/5 minutes” and “High”.
With `C=C1C[C@@]23CC[C@H]4[C@@](C)(CCC[C@@]4(C)C(=O)O[C@@H]4O[C@H](CO)[C@@H](O)[C@H](O)[C@H]4O)[C@@H]2CC[C@]1(O[C@@H]1O[C@H](CO)[C@@H](O)[C@H](O[C@@H]2O[C@H](CO)[C@@H](O)[C@H](O)[C@H]2O)[C@H]1O[C@@H]1O[C@H](CO)[C@@H](O)[C@H](O)[C@H]1O)C3` [Form 4, rebaudioside A], the “Rate of dissolution in H2O at 25° C.” value in data set [1] (H2O, 25° C.) is given as “(>35.0%/ %/5 minutes”; in data set [1] (in words), “High”. The compound also returned a Solubility in water in data set [2] of over 35.0%.
For the compound `C=C1C[C@@]23CC[C@H]4[C@@](C)(CCC[C@@]4(C)C(=O)O[C@@H]4O[C@H](CO)[C@@H](O)[C@H](O)[C@H]4O)[C@@H]2CC[C@]1(O[C@@H]1O[C@H](CO)[C@@H](O)[C@H](O[C@@H]2O[C@H](CO)[C@@H](O)[C@H](O)[C@H]2O)[C@H]1O[C@@H]1O[C@H](CO)[C@@H](O)[C@H](O)[C@H]1O)C3` [REBA, rebaudioside A], the Sweetness linger rating is recorded as 5 in data set [3] (control: 400 ppm REBA in citric acid/potassium citrate composition, no additive) and 5 in data set [3] (control: 500 ppm REBA in carbon-treated water, phosphoric acid pH 2.4-2.5, no additive). Also, the figures for the Sucrose equivalent in data set [4] (180 ppm rebaudioside A in diluted beverage) and in data set [4] (400 ppm REBA) were 5 % sucrose and 8 g sucrose, respectively.
